Test results taken from PubChem BioAssay AID1963969 (Molecular Pharmacology Branch, DTP, NCI, 2024).
Where “and” joins values, the source holds several entries; their conditions need not be identical. Equal values may be shown once.

Test system: 817829-284-R-J1-PDC multi-cell spheroid viability
Assay: Anticancer human tumor 817829-284-R-J1-PDC patient-derived colon adenocarcinoma cell line growth inhibition [PI3K]
Conditions: for viability, T/C: stronger effect = lower value
Summary of the method: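 Targeted small molecules plus PI3K inhibitors, half-log dose series from Cmax (default top 10 microM), were applied to heterotypic spheroids of cancer cells with HUVEC and MSCs. Viability indicated growth inhibition.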
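Also: spheroids exposed to agents for seven days before readout.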
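For viability, T/C in this document: percent of vehicle DMSO control viability which is 100%.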

In the case of `Cn1ncnc1[C@H]1c2n[nH]c(=O)c3cc(F)cc(c23)N[C@@H]1c1ccc(F)cc1` + Cc1nc(NC(=O)N2CCCC2C(N)=O)sc1-c1ccnc(C(C)(C)C(F)(F)F)c1, the IC50 (curve of first compound, second compound 0.0316 µM) is reported as 25.1 nM, the IC50 (curve of first compound, second compound 0.1 µM) is reported as 62.7 nM and the IC50 (curve of first compound, second compound 0.316 µM) is reported as 7.2 nM. For the same compound, the IC50 (curve of first compound, second compound 1 µM) was 41.2 nM, the IC50 (curve of first compound, second compound 3.16 µM) was 16.3 nM and the IC50 (curve of first compound, second compound 10 µM) was 11.9 nM. It also gave a viability, T/C (second compound 0.0316 µM, first compound 0.000316 µM) of 60.7%, a viability, T/C (second compound 0.0316 µM, first compound 0.001 µM) of 77% and a viability, T/C (second compound 0.0316 µM, first compound 0.00316 µM) of 72.5%. For the same compound, the viability, T/C (second compound 0.0316 µM, first compound 0.01 µM) was 55.1%, the viability, T/C (second compound 0.0316 µM, first compound 0.0316 µM) was 49.4% and the viability, T/C (second compound 0.0316 µM, first compound 0.1 µM) was 48%. It also gave a viability, T/C (second compound 0.1 µM, first compound 0.000316 µM) of 78.6%, a viability, T/C (second compound 0.1 µM, first compound 0.001 µM) of 72.2% and a viability, T/C (second compound 0.1 µM, first compound 0.00316 µM) of 69.1%. For the same compound, the viability, T/C (second compound 0.1 µM, first compound 0.01 µM) was 59.6%, the viability, T/C (second compound 0.1 µM, first compound 0.0316 µM) was 53.9% and the viability, T/C (second compound 0.1 µM, first compound 0.1 µM) was 47.5%. For the same compound, the viability, T/C (second compound 0.316 µM, first compound 0.000316 µM) was 84.8%, the viability, T/C (second compound 0.316 µM, first compound 0.001 µM) was 87.2% and the viability, T/C (second compound 0.316 µM, first compound 0.00316 µM) was 55.5%. The viability, T/C (second compound 0.316 µM, first compound 0.01 µM) was 55.8%, the viability, T/C (second compound 0.316 µM, first compound 0.0316 µM) was 37.2% and the viability, T/C (second compound 0.316 µM, first compound 0.1 µM) was 50.2%. For the same compound, the viability, T/C (second compound 1 µM, first compound 0.000316 µM) was 59%, the viability, T/C (second compound 1 µM, first compound 0.001 µM) was 52.1% and the viability, T/C (second compound 1 µM, first compound 0.00316 µM) was 54.5%. For the same compound, the viability, T/C (second compound 1 µM, first compound 0.01 µM) was 43.3%, the viability, T/C (second compound 1 µM, first compound 0.0316 µM) was 70.2% and the viability, T/C (second compound 1 µM, first compound 0.1 µM) was 30.8%. The viability, T/C (second compound 3.16 µM, first compound 0.000316 µM) was 48.5%, the viability, T/C (second compound 3.16 µM, first compound 0.001 µM) was 72.7% and the viability, T/C (second compound 3.16 µM, first compound 0.00316 µM) was 60.7%. The viability, T/C (second compound 3.16 µM, first compound 0.01 µM) was 62.6%, the viability, T/C (second compound 3.16 µM, first compound 0.0316 µM) was 33.1% and the viability, T/C (second compound 3.16 µM, first compound 0.1 µM) was 36.8%. For the same compound, the viability, T/C (second compound 10 µM, first compound 0.000316 µM) was 49.9%, the viability, T/C (second compound 10 µM, first compound 0.001 µM) was 54.9% and the viability, T/C (second compound 10 µM, first compound 0.00316 µM) was 60.7%. For the same compound, the viability, T/C (second compound 10 µM, first compound 0.01 µM) was 40.6%, the viability, T/C (second compound 10 µM, first compound 0.0316 µM) was 50.8% and the viability, T/C (second compound 10 µM, first compound 0.1 µM) was 38.2%.

With `C#Cc1c(F)ccc2cc(O)cc(-c3ncc4c(N5CC6CCC(C5)N6)nc(OCC56CCCN5CC(F)C6)nc4c3F)c12` (centres undefined) the viability, T/C (compound 0.0316 µM) was 83.3% and 99%, the viability, T/C (compound 0.1 µM) was 95.1% and 72.9% and the viability, T/C (compound 0.316 µM) was 69.9% and 83%. For the same compound, the viability, T/C (compound 1 µM) was 68.4% and 99.7%, the viability, T/C (compound 3.16 µM) was 87.7% and 88.6% and the viability, T/C (compound 10 µM) was 33.2% and 56.2%. The IC50 (curve of compound) was 6660 nM and > 10000 nM.
